Where a name gives a salt, the structure may show the parent alone.
System: Wistar rats
Assay: Food intake test (30 min, living mealworms) in non-deprived rats
Assay type: in vivo, rat
Details: for Dose needed for effect on food intake in this procedure (conclusion): into esophagus
Text: In the following examples food intake tests were run with cohorts of 32 Wistar rats having food intake sessions in two groups of 16 rats in parallel. There were 8 rats per experimental group. The rats weighed in the range of 260-370 grams. Rats were acclimatized to the housing conditions in our laboratory for at least one week after arrival from the breeder. The rats were housed in pairs in Macrolon cages of 42×26 cm and 15 cm high, with standard food and water available ad libitum. The day-night cycle was not reversed (lights on at 7:00 AM, off 19:00 PM). Food intake tests were run in the same room wherein the rats were housed in the light period of the diurnal cycle of the rats. In a further period the rats were habituated to human handling and to the manner of presentation of mealworms in the food intake tests. Food intake was measured with rats without food deprivation. Food intake tests were done by placing the rats from their home cage individually into clean Macrolon (42×26×15 cm) cages without bedding. A weighed amount of at least 15-20 g living mealworms in a petri dish was placed in the middle of the cage and rats were allowed 30 minutes for eating mealworms. During the 30 minute test for food intake no drinking water was available. Injection treatments were administered at determined times before the food intake test. After drug administration the rats were returned to their home cage. Both rats of a pair in a living cage were assigned to the same treatment groups. Otherwise allocation of rats to experimental groups was done such that the treatments were equally and randomly spread over the duration of an experiment. The experimenter remained in the test room for the duration of an experiment. This allowed observation of general behavioural effects of the treatments. Abnormalities were recorded.
For drug administration commercially available stock solutions in vials were used: • lidocainehydrochloride 20 mg/ml injection fluid (Fresenius Kabi); procainamidehydrochloride 100 mg/ml injection fluid (Apotheek Haagse Ziekenhuizen); • ropivacainehydrochloride 7.5 mg/ml injection fluid (Fresenius Kabi); • metoclopramine (Sigma) was weighed and dissolved for use.
Drugs were administered in volumes of 1 ml/kg rat.
Vehicle: for local anesthetics the commercial physiological saline solutions for injection were used directly or the solution was diluted with distilled water. Alginate for a 2% viscous alginate solution was added 18 hours before use of the solution for injection. The solution was prepared to a viscous solution by allowing 18 hours of slow mechanical mixing.
For administration of the drug into the lumen of the esophagus the injection fluid was administered by entering a thick needle with rounded tip via, and into the esophagus just above the lower esophageal sphincter and retreating during injection to release the volume to be injected just behind the pharynx.
For administration into the stomach a similar 1 mm thick needle with a 2 mm tip and 60 mm length was introduced into the stomach via the esophagus as customary for oral administration in rats.
For administration subcutaneously (sc) the injection fluid was injected with a sharp thin needle under the skin in the neck.

CCN(CC)CCNC(=O)c1cc(Cl)c(N)cc1OC [metoclopramide]
Grams of mealworms eaten (AVG) (Example 6, 3 mg/kg sc, 30 minutes before test): 11.86 grams | Grams of mealworms eaten (AVG) (Example 6, 10 mg/kg sc, 30 minutes before test): 1.25 grams | Grams of mealworms eaten (AVG) (Example 6, 30 mg/kg sc, 30 minutes before test): 0.22 grams | Effect on food intake (conclusion) (Example 6, subcutaneously at doses above 3 mg/kg): inhibits food intake | Grams of mealworms eaten (AVG) (Example 7, 0.1 mg/kg sc, 30 minutes before test): 13.51 grams | Grams of mealworms eaten (AVG) (Example 7, 0.3 mg/kg sc, 30 minutes before test): 12.23 grams | Grams of mealworms eaten (AVG) (Example 7, 1 mg/kg sc, 30 minutes before test): 15.76 grams | Effect on food intake (conclusion) (Example 7, 0.1 and 0.3 mg/kg subcutaneously): ineffective | Effect on food intake (conclusion) (Example 7, subcutaneous injection of 1 mg/kg): increases food intake

CCN(CC)CC(=O)Nc1c(C)cccc1C [Lidocaine•HCl, lidocainehydrochloride]
Grams of mealworms eaten (AVG) (Example 1, 1 mg/kg into esophagus, 30 minutes before test): 14.85 grams | Grams of mealworms eaten (AVG) (Example 1, 3 mg/kg into esophagus, 30 minutes before test): 14.46 grams | Grams of mealworms eaten (AVG) (Example 1, 10 mg/kg into esophagus, 30 minutes before test): 14.54 grams | Grams of mealworms eaten (AVG) (Example 2, 20 mg/kg esophagus, 15 minutes before test): 16.91 grams | Grams of mealworms eaten (AVG) (Example 2, 20 mg/kg esophagus, 30 minutes before test): 17.14 grams | Grams of mealworms eaten (AVG) (Example 2, 20 mg/kg stomach, 30 minutes before test): 16.28 grams | Effect on food intake, esophagus compared with stomach (conclusion) (Example 2, 20 mg/kg, application in the esophagus versus into the stomach): more effective | Effect on food intake (conclusion) (Example 2, dose of 20 mg/kg): effective | Dose needed for effect on food intake in this procedure (conclusion) (30 minutes before test): above 10 mg/kg

CCN(CC)CCNC(=O)c1ccc(N)cc1 [Procainamide, procainamidehydrochloride]
Grams of mealworms eaten (AVG) (Example 3, 20 m/kg esophagus, 30 minutes before test): 12.11 grams | Grams of mealworms eaten (AVG) (Example 4, 100 m/kg esophagus, 30 minutes before test): 10.55 grams | Dose needed for effect on food intake in this procedure (conclusion) (30 minutes before test): higher than 20 mg/kg

CCCN1CCCC[C@H]1C(=O)Nc1c(C)cccc1C.Cl [Ropivacaine, ropivacainehydrochloride]
Grams of mealworms eaten (AVG) (Example 3, 1.25 mg/kg esophagus, 30 minutes before test): 13.40 grams | Grams of mealworms eaten (AVG) (Example 4, 3.75 mg/kg esophagus, 30 minutes before test): 12.08 grams | Grams of mealworms eaten (AVG) (Example 4, 7.5 mg/kg esophagus, 30 minutes before test): 13.58 grams | Effect on food intake (conclusion) (Example 4, 7.5 mg/kg in the esophagus): enhanced food intake | Effect on meal size (conclusion) (Example 5, 7.5 mg/kg and 11.25 mg/kg in the esophagus): effective in increasing meal size | Grams of mealworms eaten (AVG) (Example 5, 7.5 mg/kg esophagus): 13.24 grams | Grams of mealworms eaten (AVG) (Example 5, 7.5 mg/kg stomach): 10.72 grams | Grams of mealworms eaten (AVG) (Example 5, 11.25 mg/kg esophagus): 14.44 grams | Dose needed for effect on food intake in this procedure (conclusion) (30 minutes before test): higher than 1.25 mg/kg

— patent US10828272B2, “Means to facilitate food intake and food retention” (Chardon Group B.V., priority 2012, dated 2020)
